Test results: paper PMC7897990, “TriTOX: A novel Trichomonas vaginalis assay platform for high-throughput screening of compound libraries” (International Journal for Parasitology: Drugs and Drug …, 2021)
“Also recorded” adds a separate entry of the source. Where two headings read alike, the source gives them in different places.

Columns and labels:
T. foetus = assay: Medium-throughput (MTS) confirmatory dose-response growth assay, T. foetus; assay type: cell-based, Tritrichomonas foetus; conditions: 48 h; for activity against T. foetus in MTS, in words: 10-point dilution series, 96-well; for IC50: 96-well, 10,000 cells/mL in 50 μL, mean ± SEM, >10 = no appreciable activity at highest dose
Experimental: (§1) For microtiter plate assays, trichomonads were grown in anaerobic conditions within GasPak EZ anaerobe pouches with fresh anaerobic sachets. Working reagent of the chromogen was phenol red (Sigma) in a 1% w/v working solution in phosphate buffered saline (PBS), which was filter sterilised. Chromogen absorbance was monitored at 570 nm on an absorbance microplate reader after plates were allowed to equilibrate in atmospheric conditions at room temperature for at least 5 min.
(§2) After absorbances were measured, data were processed as followed unless indicated otherwise in the text. […] Prism 8 (GraphPad) was used to plot dose-response curves and calculate IC50 values, using a least squares regression, log[inhibitor] vs normalised response (variable slope, four parameters) model. Where replicate plates were used, data for dose-response curves were plotted as the mean±SD of these replicates.
(§3) A selection of 17 compounds assayed in the high-throughput screen (HTS) for T. vaginalis which were available through BioAustralis were obtained for validation of inhibitory in/activity in our optimised medium-throughput format. For this, a 10-point serial dilution was used for drug-susceptibility testing to calculate IC50 values of ‘hit’ compounds. Mtz was used as a positive control. Each screen was performed with 3 technical replicates and a minimum of 2 biological replicates in both T. vaginalis and T. foetus using assay conditions of seeds of 10,000 cells/mL in 50 μL, with absorbance measured at 48 h. Dose response curves and IC50 were calculated for each compound as described above in Section 2.3.

T. vaginalis = assay: Medium-throughput (MTS) confirmatory dose-response growth assay, T. vaginalis; assay type: cell-based, Trichomonas vaginalis; conditions: for activity against T. vaginalis in MTS, in words: 10-point dilution series, 96-well; for activity against T. vaginalis in MTS, in words / IC50: 48 h; for IC50: 96-well, 10,000 cells/mL in 50 μL, mean ± SEM, >10 = no appreciable activity at highest dose; for species-specificity T. vaginalis vs T. foetus in MTS: comparison of MTS IC50 in both species
Experimental: as §1, §2, §3

[1] = system: Trichomonas vaginalis G3 trophozoites; conditions: for T. vaginalis HTS results / T. vaginalis HTS result in words: 384-well, 25 μL, 10,000 cells/mL, 48 h, biological duplicates; for T. vaginalis HTS results: 10% chromogen, single concentration; for T. vaginalis HTS result in words: hit = >50% inhibition; for T.vaginalis_Absorbance_Rep1: replicate 1, raw absorbance; for T.vaginalis_Absorbance_Rep2: replicate 2, raw absorbance
[2] = system: nontumorigenic neonatal foreskin fibroblast (NFF) cell line
[3] = system: Staphylococcus aureus (ATCC 25923); assay type: cell-based; conditions: 5 μg/mL
[4] = system: Trichomonas vaginalis G3 trophozoites; assay: microbe, parasite or virus in culture; conditions: 48 h
[5] = system: Bacillus subtilis (ATCC 6633); assay type: cell-based; conditions: 5 μg/mL
[6] = HTS, parasite screen at 1 µg/mL, replicate 1
[7] = HTS, parasite screen at 1 µg/mL
[8] = HTS, parasite screen at 1 µg/mL, replicate 2
[9] = read-out: T.vaginalis_%inb_Rep1
[10] = read-out: T.vaginalis_%inb_Rep2
[11] = NFF fibroblast screen at 5 µg/mL, A = active, I = inactive

SMILES	IC50 (T. foetus; Tritrichomonas foetus) [µM]	activity against T. vaginalis in MTS, in words (T. vaginalis)	IC50 (T. vaginalis; Trichomonas vaginalis) [µM]	T. vaginalis HTS result in words [1]	IC50 (T. foetus) [µM]	IC50 (T. vaginalis) [µM]	species-specificity T. vaginalis vs T. foetus in MTS (T. vaginalis)	other results
CCC(=O)CCCCC[C@@H]1NC(=O)[C@H]2CCCCN2C(=O)[C@H]([C@@H](C)CC)NC(=O)[C@H](Cc2cn(OC)c3ccccc23)NC1=O [Apicidin, apicidin]	1.9 ± 0.2	confirmed active; also recorded: micromolar IC50 values	1.2 ± 0.1	inactive in both T. vaginalis HTS replicates				activity against T. foetus in MTS, in words (T. foetus): micromolar IC50 values; T. vaginalis HTS results [1]: I
O=[N+]([O-])c1ncc[nH]1 [Azomycin, azomycin]	8.6 ± 4.3	confirmed active; also recorded: inconsistent activity	9.7 ± 5.5	inactive				T. vaginalis HTS results [1]: I
COc1ccc2cc1Oc1cc(ccc1O)[C@H](O)[C@]13SS[C@@]4(C(=O)N1C)[C@H](O)C1=COC=C[C@H](OC2=O)[C@H]1N4C3=O [Emestrin, emestrin, reference compound]		inactive		partial hits	7.3 ± 3.3	> 10		activity against T. foetus in MTS, in words (T. foetus): inconsistent between biological replicates; T.vaginalis_%inb_Rep1 [1, 6]: 12.22%; T.vaginalis_Absorbance_Rep1 [1, 7]: 0.943; T.vaginalis_%inb_Rep2 [1, 8]: 63.12%; T.vaginalis_Absorbance_Rep2 [1, 7]: 1.619; NFF_Activity ([2]; NFF_NS1 screen at 5 µg/mL): A (active (A) compounds having >25% inhibitory activity)
CO[C@@H]1[C@H](OC(=O)/C=C/C=C/C=C/C=C/C(=O)O)CC[C@]2(CO2)[C@H]1[C@@]1(C)O[C@@H]1CC=C(C)C [Fumagillin, fumagillin, reference compound]	0.18 ± 0.03	near nanomolar potency	0.26 ± 0.11					activity against T. foetus in MTS, in words (T. foetus): near nanomolar potency; activity against T. vaginalis in MTS, in words (T. vaginalis; listed as fumagillin): true positives; antibacterial activity against Staphylococcus aureus [3]: no anti-bacterial; inhibition of growth at 1 µg/mL [4, 9]: 48.9%; inhibition of growth at 1 µg/mL [4, 10]: 45.5%; antibacterial activity against Bacillus subtilis [5]: no anti-bacterial; T.vaginalis_Absorbance_Rep1 [1, 7]: 1.617; T.vaginalis_Absorbance_Rep2 [1, 7]: 1.25; cytotoxic activity (NFF) [2]: no anti-bacterial nor cytotoxic activity
CN1C(=O)[C@]23CC4=CC=C[C@H](O)[C@H]4N2C(=O)[C@@]1(CO)SS3 [Gliotoxin, gliotoxin, reference compound]	> 10	no activity	> 10					inhibition of growth at 1 µg/mL [4, 9]: 71%; inhibition of growth at 1 µg/mL [4, 10]: 78.7%; T.vaginalis_Absorbance_Rep1 [1, 7]: 2.103; T.vaginalis_Absorbance_Rep2 [1, 7]: 1.862; NFF_Activity ([2]; NFF_NS1 screen at 5 µg/mL): A (active (A) compounds having >25% inhibitory activity)
CCC(C)CC1CCC(O)(C(C)(O)C(=O)NC2C(=O)N3NCCCC3C(=O)N(O)C(C)C(=O)NCC(=O)N3NCCCC3C(=O)N(O)C(C)C(=O)OC2C(C)C)OC1C (stereo not shown) [L 156602]		true positives			0.44 ± 0.18	0.059 ± 0.004		
CC(C=CC1OC(=O)C=CC1C)=CC(C)CC=CC(C)=CC(C)C(=O)C(C)C(O)C(C)CC(C)=CC(=O)O (stereo not shown) [Leptomycin A, leptomycin A]		true negatives			> 10	> 10		T. vaginalis HTS results [1]: I
CCC(=C/[C@H](C)C/C=C/C(C)=C/[C@@H](C)C(=O)[C@@H](C)[C@H](O)[C@@H](C)C/C(C)=C/C(=O)O)/C=C/[C@@H]1OC(=O)C=C[C@@H]1C [Leptomycin B, leptomycin B]	> 10	no activity	> 10					
COC(=O)c1ccc(CCCCCCCCCCc2ccc(C(=O)OC)nc2)cn1 [Penicolinate A, penicolinate A]		true positives				2.7 ± 0.9	selective activity against T. vaginalis but not T. foetus	activity against T. foetus in MTS, in words (T. foetus): weak activity; T.vaginalis_%inb_Rep1 ([1]; HTS replicate 1, parasite screen 1 µg/mL): 78.85%; T.vaginalis_%inb_Rep2 ([1]; HTS replicate 2, parasite screen 1 µg/mL): 85.50%
CSC[S@+]([O-])C[C@H](CO)NC(=O)/C=C/c1c(C)[nH]c(=O)[nH]c1=O [Sparsomycin, sparsomycin]	> 10	true positives	2.3				selective activity against T. vaginalis but not T. foetus	
Cn1ncnc2c(=O)n(C)c(=O)nc1-2 [Toxoflavin, toxoflavin, reference compound]		confirmed active		partial hits	4.1 ± 0.9	3.1 ± 1.7	remained active against both T. vaginalis and T. foetus	T.vaginalis_%inb_Rep1 [1, 6]: 5.72%; T.vaginalis_%inb_Rep2 [1, 8]: 100.00%; NFF_Activity [2, 11]: A (active (A) compounds having >25% inhibitory activity)
N#Cc1cn([C@@H]2O[C@H](CO)[C@@H](O)[C@H]2O)c2ncnc(N)c12 [Toyocamycin, toyocamycin, reference compound]	2.4 ± 0.7	true positives	0.3 ± 0.01	supported the anti-trichomonal activity			remained active against both T. vaginalis and T. foetus	inhibition of growth at 1 µg/mL [4, 9]: 69.9%; inhibition of growth at 1 µg/mL [4, 10]: 77.5%; NFF_Activity [2, 11]: I (otherwise these were reported as inactive (I))
CC(/C=C/C(=O)NO)=C\[C@@H](C)C(=O)c1ccc(N(C)C)cc1 [Trichostatin A, trichostatin A, reference compound]				supported the anti-trichomonal activity	0.048 ± 0.006	0.22 ± 0.06		activity against T. vaginalis in MTS, in words (T. vaginalis; listed as TSA): true positives; T.vaginalis_%inb_Rep1 [1, 6]: 71.95%; T.vaginalis_%inb_Rep2 [1, 8]: 67.89%; NFF_Activity [2, 11]: I (otherwise these were reported as inactive (I))
CC(C=CC(=O)NOC1OC(CO)C(O)C(O)C1O)=CC(C)C(=O)c1ccc(N(C)C)cc1 (stereo not shown) [Trichostatin C, trichostatin C, reference compound]		true negatives			> 10	> 10		T. vaginalis HTS results [1]: I; T.vaginalis_%inb_Rep1 [1, 6]: 10.28%; T.vaginalis_%inb_Rep2 [1, 8]: 10.24%
Nc1ncnc2c1ccn2[C@@H]1O[C@H](CO)[C@@H](O)[C@H]1O [Tubercidin, tubercidin]	> 10	true positives	2.4 ± 0.1				selective activity against T. vaginalis but not T. foetus	inhibition of growth at 1 µg/mL [4, 9]: 63.8%; inhibition of growth at 1 µg/mL [4, 10]: 76%; NFF_Activity [2, 11]: A (active (A) compounds having >25% inhibitory activity)
